The subject of data set [1] is bloodstream T. brucei. Description: Trypanosome proliferation inhibition assay (GI50). Particulars: for Selectivity Index HL GI50/Tbb GI50: ratio between HeLa and T. brucei GI50. It is filed as cell-based, Trypanosoma brucei brucei. The method, then:
T. brucei (brucei or rhodesiense) were seeded at 4 × 10^3 cells/mL in 24-well plates (0.5 or 1 mL of culture per well). […] Then, at least five drug concentrations[26] covering this range was used for subsequent assays. Each concentration was tested in duplicate. […] Cells were counted only if they were motile. […] Final mean GI50 values were calculated based on two independent experiments, each with at least five data points performed in duplicate. T. brucei were seeded at 4 × 10^3 cells/mL and dispensed into wells of a 384-well black plate (Greiner; Frickenhausen, Germany). Wells in two columns per plate were filled with 50 μL of HMI-9 medium using a Multidrop Combi (Thermo Scientific; Waltham, MA) to serve as a background control. Fifty microliters of trypanosome suspension was added to separate columns using a Multidrop Combi. Lastly, an additional 50 μL of cell resuspension was added to only the top row of wells that contained cells (row A, labeled by Greiner), using an Xplorer multichannel pipette (Eppendorf; Hamburg-Eppendorf, Germany) bringing final volumes of cell-containing wells in the top row to 100 μL. […] St. Louis, MO). A microliter of DMSO (25%) or diluted drug was added to wells containing cells of the top row using an Xplorer multichannel pipette. Each concentration was tested in duplicate. Cells and DMSO/drug were mixed and serially diluted 1:2 down the rows of the plate. […] Cells were lysed by addition of 15 μL of SYBR Green I (Invitrogen; Carlsbad, CA) in lysis solution[30] (5X SYBR Green I, 30 mM Tris pH 7.5, 7.5 mM EDTA, 0.012% saponin and 0.12% Triton X-100) to each well. […] Data collected was exported to Excel from Ascent Software (Thermo Scientific). Base-line corrected non-linear regression graphs were generated and GI50 values determined using GraphPad Prism (GraphPad Software; La Jolla, CA). Final mean GI50 values were calculated based on four separate biological replicates.

The subject of data set [2] is T. b. rhodesiense. As to the kind of experiment: Trypanosome proliferation inhibition assay (GI50), T. b. rhodesiense. The class given is cell-based. Particulars: Trypanosoma brucei, 4 × 10^3 cells/mL, 24-well plates, 48 h, read-out: Growth inhibition (GI50) ± SD T. b. rhodesiense.
Experimental: T. brucei (brucei or rhodesiense) were seeded at 4 × 10^3 cells/mL in 24-well plates (0.5 or 1 mL of culture per well). […] Compounds were initially tested at 10 nM, 100 nM or 1 μM, to define a range where cell density responded to drug concentrations. Then, at least five drug concentrations[26] covering this range was used for subsequent assays. Each concentration was tested in duplicate. Cell density was determined with a Neubauer Bright-Line hemocytometer (Sigma) after 48 h. Cells were counted only if they were motile. […] Final mean GI50 values were calculated based on two independent experiments, each with at least five data points performed in duplicate.
For data set [3], the system named is HeLa cells. Description: HeLa cell proliferation inhibition assay (GI50). It is filed as cell-based. The note with it: Homo sapiens; HeLa 1 × 10^5 cells/mL, 24 h with compound; read-out: Growth inhibition (GI50) ± SD HeLa.
Experimental: HeLa cells were seeded to 1 × 10^5 cells/mL in 24-well plates (1 mL of culture per well) and incubated drug-free for 24 h at 37 °C, 5% CO2. DMSO or stock inhibitor concentration (5 μL) was added to obtain the specified final concentrations. Cells were incubated for 24 h[28][29] at 37 °C, 5% CO2. Next, cells were trypsinized and cell density was determined with a Neubauer Bright-line hemocytometer as described[9]. GI50 for each compound was calculated by plotting data for the cell counts in Excel as described for T. brucei above. Data were obtained from two independent experiments, four separate biological replicates.
In data set [4] the test system is T. brucei. As to the kind of experiment: Mouse model of HAT: oral treatment of T. brucei-infected mice. It is filed as in vivo, Trypanosoma brucei brucei. The note with it: for survival of infected mice compared to control untreated animals: administered orally; for reduction of parasitemia: day six, after full oral dose days two to five (2: 20 mg/kg, 3: 25 mg/kg); for increase in average survival: infected mice treated orally, versus vehicle (5 days on average); for cure of T. brucei infection in mice: oral administration. The method, then:
Cultured T. brucei were pelleted and resuspended in cold phosphate buffered saline (PBS) containing 1% glucose at 1 × 10^5 cells/mL. Female Swiss-Webster mice (8–10 weeks old, 20–25 g, n = 4 per group) (Harlan; Indianapolis, IN) were infected intraperitoneally (i.p.) with 10^4 bloodstream trypanosomes in 100 μL of PBS using 26G needles. To avoid damage to T. brucei cells, mechanical stress during administration was minimized by avoiding repeated pulling and pushing movements of cell resuspension through the syringe needle. Starting 48 h post-infection, and every 1–8 days thereafter, parasitemia was monitored by collecting 3 μL of blood from the tail vein of mice. Blood samples were supplemented with 21 μL of RBC Lysis Solution (Qiagen; Valencia, CA) and incubated at room temperature for 15–45 min. prior to observing for parasites using a Neubauer Bright-line hemocytometer. Mice with parasitemia greater than 2 × 10^8 trypanosomes/mL were euthanized. […] To compare animal survival in treatment and vehicle control groups, Student’s t-test was performed in Excel to generate p-values. All animal experiments were conducted with the approval of the Institutional Animal Care and Use Committee (IACUC) at the University of Georgia. All experimental protocols involving animals were carried out in accordance with the approved guidelines of the IACUC at the University of Georgia.
Formulated compounds or vehicle control (0.2% HPMC) were administered by oral gavage starting 24 h after mouse infection with T. brucei. Animals were weighed before each compound administration, and dose volume was adjusted based on body weight (10 mL/kg) to deliver accurate doses of test compounds. The treatment was ceased for animals when normalized body weight (NBW) loss exceeded 20%, and resumed after NBW recovery above 90%. […] 1: 30 mg/kg or 40 mg/kg, treatment regimen of “4 days on/2 days off” for a total of 14 doses; 2: 20 mg/kg (days 2–5), 10 mg/kg (day 7), 5 mg/kg (days 8–9), no drug (day 6, days 10–13); 3: 25 mg/kg (days 2–5), 12.5 mg/kg (day 7), 6.25 mg/kg (days 8–10), no drug (day 6, days 11–13). Scheduled euthanasia by CO2 overdose followed by incision to form a bilateral pneumothorax was conducted on mice considered cured 30 days after the end of experimental treatment (see previous section). Mice with parasitemia greater than 2 × 10^8 trypanosomes/mL or NBW losses ≥30% were subjected to unscheduled euthanasia.

Data set [5] can be described thus: Normalized body weight of treated T. brucei-infected mice. It is filed as in vivo. The note with it: oral 2 (20 mg/kg) or 3 (25 mg/kg).
Experimental: Formulated compounds or vehicle control (0.2% HPMC) were administered by oral gavage starting 24 h after mouse infection with T. brucei[33][34]. Animals were weighed before each compound administration, and dose volume was adjusted based on body weight (10 mL/kg) to deliver accurate doses of test compounds. The treatment was ceased for animals when normalized body weight (NBW) loss exceeded 20%, and resumed after NBW recovery above 90%. […] 1: 30 mg/kg or 40 mg/kg, treatment regimen of “4 days on/2 days off” for a total of 14 doses; 2: 20 mg/kg (days 2–5), 10 mg/kg (day 7), 5 mg/kg (days 8–9), no drug (day 6, days 10–13); 3: 25 mg/kg (days 2–5), 12.5 mg/kg (day 7), 6.25 mg/kg (days 8–10), no drug (day 6, days 11–13). Scheduled euthanasia by CO2 overdose followed by incision to form a bilateral pneumothorax was conducted on mice considered cured 30 days after the end of experimental treatment (see previous section). Mice with parasitemia greater than 2 × 10^8 trypanosomes/mL or NBW losses ≥30% were subjected to unscheduled euthanasia.
The conditions of data set [6]: ref Cleveland BioLabs, unpublished data; cited from earlier work.
Data set [7] concerns T. brucei. Description: Thirty-hour treatment of trypanosomes: cell density, kinetoplast/nucleus copy number, DNA content. Particulars: 200 nM. It is filed as cell-based, Trypanosoma brucei brucei.
Experimental: At stated times trypanosome density was determined using a Z2 Coulter Counter (Beckman). […] At the same time-points a 5 mL aliquot (5 × 10^5–1 × 10^7 cells total) was collected and analyzed by flow cytometry as described below. All data reported were obtained from three independent experiments.
T. brucei (between 5 × 10^5 cells to 1 × 10^7 cells) in 5 mL of culture medium were centrifuged (3 min, 3000 × g at room temperature) to pellet cells and washed once with 1 mL of PBS containing 10 mM glucose. Cells were fixed in 1 mL of 70% methanol supplemented by PBS at 4 °C for up to two weeks, centrifuged (3 min, 2000 × g at room temperature), and resuspended at 5 × 10^5 cells/mL in 1X PBS. RNase A and propidium iodide (PI) were added to each sample to final concentrations of 500 μg/mL and 7.5 μM, respectively, and the suspension was protected from light during incubation for 1 h at 37 °C[35]. Samples were placed on ice for 15 min and data was immediately collected on a CyAn ADP Analyzer (Beckman Coulter; Hialeah, FL). During analysis with FlowJo software (FlowJo, LLC; Ashland, OR), trypanosomes were gated from background debris by plotting “events” as forward scatter vs. side scatter (both on the logarithmic scale). Single trypanosomes were gated for cell cycle analysis from cells stuck together (“doublets”) by plotting trypanosome events as PI fluorescence vs. pulse width. Distribution of trypanosomes into groups containing different amounts of chromosomal DNA was performed using Watson-Pragmatic algorithm in FlowJo. DNA distribution values from independent experiments were averaged with error bars generated and graphed in Excel. To compare effects of drug treatment on DNA content of experimental and vehicle control groups, Student’s t-test was performed in Excel to generate p-values.
[8] abbreviates: Trypanosoma brucei, 48 h, T. brucei 4 × 10^3 cells/mL, 48 h, Fig. 1, read-out: GI50.
The mark [9] stands for this setting: Trypanosoma brucei, against T. brucei, read-out: GI50.
Setting [10] is: Trypanosoma brucei, 48 h, 4 × 10^3 cells/mL, 24-well plates, 48 h, Table 1, read-out: Growth inhibition (GI50) ± SD T. b. brucei.

The values that follow come from publication PMC5000474, “Discovery of a Carbazole-Derived Lead Drug for Human African Trypanosomiasis” (Scientific Reports, 2016).

Read-outs that look alike come from different tables or passages of the source.

`CCN(CC)CCn1c2ccc(C(C)=O)cc2c2cc(C(C)=O)ccc21` [CBL0014]: the GI50 – broadly, the concentration at which growth is held to half of that of the control – in data set [1] (setting [8]) was found to be 76 ± 20 nM.
Regarding `CCN(CC)CCn1c2ccc(C#N)cc2c2cc(C#N)ccc21` [CBL0018], the GI50 in data set [1] (setting [8]) worked out at 250 ± 20 nM.
For the molecule `CCN(CC)CCn1c2ccc(C3=NCCN3)cc2c2cc(C3=NCCN3)ccc21` [CBL0030], the GI50 in data set [1] (setting [8]) stood at 1500 ± 210 nM.
Turning to `CC(=O)c1ccc2c(c1)c1cc(C(C)=O)ccc1n2CCCN(C)C` [CBL0031], in data set [1] (setting [8]), the GI50 stood at 260 ± 0.64 nM.
As for `CC(=O)c1ccc2c(c1)c1cc(C(C)=O)ccc1n2CCC1CCCN1C` (stereo not shown) [CBL0053], in data set [1] (setting [8]), the GI50 is 58 ± 5.3 nM.
For the molecule `CCN(CC)CCCC(C)n1c2ccc3c(c2c2c4c(ccc21)C(=O)CC4)CCC3=O` (stereo not shown) [CBL0100Q], the GI50 in data set [1] (setting [8]) amounted to 240 ± 2 nM.
With `CCN(CC)CCn1c2ccc3c(c2c2c4c(ccc21)C(=O)CC4)CCC3=O` [CBL0100], in data set [1] (setting [8]), the GI50 was determined as 0.97 ± 0.08 nM.
Consider `CC(=O)c1ccc2c(c1)c1cc(C(C)=O)ccc1n2CCCNC(C)C` [CBL0127], for which, in data set [1] (setting [8]), the GI50 was determined as 170 ± 3 nM.
Regarding `CCN(CC)CCn1c2ccccc2c2cnccc21` [CBL0139], in data set [1] (setting [9]), the GI50 is > 10000 nM.
The same measure, in the same setting: the value for `CN(C)CCCn1c2ccccc2c2cnccc21` [CBL0144] was > 10000 nM.
For the molecule `CCOC(=O)N1CCC(n2c3ccc(C(C)=O)cc3c3cc(C(C)=O)ccc32)CC1` [CBL0149], the GI50 in data set [1] (setting [8]) is 5300 ± 1500 nM.
As for `CC(=O)c1cc2c3c4c(ccc3n(CCCN(C)C)c2cc1O)C(=O)N(C)C4` [CBL0167], the 50% growth inhibitory concentration (GI50) is 21 ± 2.9 nM in data set [1] (T. brucei 4 × 10^3 cells/mL, 48 h, Fig. 1, read-out: GI50) and < 25 nM in data set [1] (setting [8]).
With `CC(=O)c1cc2c3cc(C(C)=O)c(O)cc3n(CCCN(C)C)c2cc1O` [CBL0174], in data set [1] (setting [8]), the GI50 stood at 25 ± 1.9 nM.
On to `CCCNCCCn1c2ccc(C(C)=O)cc2c2c3c(ccc21)C(=O)CC3` [CBL0175], for which the GI50 in data set [1] (setting [8]) was found to be 9.5 ± 1.4 nM.
The same measure, in the same setting: the figure for `CC(=O)c1cc2c3cc(C(C)=O)c(O)cc3n(CCNC(C)C)c2cc1O` [CBL0187] is 33 ± 2.1 nM.
`CC(C)NCCn1c2ccc3c(c2c2c4c(ccc21)C(=O)CC4)CCC3=O` [CBL0197]: the GI50 in data set [1] (setting [8]) is 0.95 ± 0.05 nM.
As to `CCNCCCn1c2ccc3c(c2c2c4c(ccc21)C(=O)CC4)CCC3=O` [CBL0198], the GI50 in data set [1] (setting [8]) is 2.8 ± 0.49 nM.
Turning to `O=C1CCc2c1ccc1c2c2c3c(ccc2n1CCN1CCOCC1)C(=O)CC3` [CBL0207], in data set [1] (setting [8]), the GI50 came to 17 ± 0.2 nM.
Take `CON=C1CCc2c1ccc1c2c2c3c(ccc2n1CCN1CCOCC1)C(=NOC)CC3` [CBL0209]: the GI50 in data set [1] (setting [8]) came out at 460 ± 18 nM.
For `CC(=O)c1ccc2c(c1)c1c3c(ccc1n2CC[C@@H]1CCCN1C)C(=O)CC3` [CBL0211], the GI50 in data set [1] (setting [8]) was determined as 2.3 ± 0.58 nM.
`CC(=O)c1ccc2c(c1)c1c3c(ccc1n2CC[C@H]1CCCN1C)C(=O)CC3` [CBL0212]: the GI50 in data set [1] (setting [8]) was 8.2 ± 0.23 nM.
With `CC(=O)c1ccc2c(c1)c1c3c(ccc1n2CCNC(C)C)C(=O)CC3` [CBL0252], the GI50 in data set [1] (setting [8]) worked out at 8.5 ± 0.22 nM.
`CN(C)CCCn1c2ccc3c(c2c2c4c(ccc21)C(=O)CC4)CCC3=O` [CBL0253]: the GI50 in data set [1] (setting [8]) was 0.74 ± 0.27 nM.
Consider `CC(=O)c1cc2c3c4c(ccc3n(CCCN(C)C)c2cc1O)C(=O)CC4` [Compound 2], for which, in data set [1] (setting [10]), the GI50 is 7.4 ± 0.2 nM. Further, the GI50 in data set [1] (setting [8]) is < 10 nM. Further, the “Selectivity Index HL GI50/Tbb GI50” value in data set [1] came to 78. The GI50 in data set [2] stood at 13 ± 3 nM. Also, the GI50 in data set [3] stood at 580 ± 100 nM. Further, in data set [4], the “survival of infected mice compared to control untreated animals” value was “increased survival”, the reduction of parasitemia is reported as 100 fold, the “increase in average survival” value was 2 fold and the “cure of T. brucei infection in mice” value is “failed to cure”. For the same molecule, the “weight loss of normal body weight (NBW)” value in data set [5] is reported as “exceeding 10%”. Moreover, the oral bioavailability result in data set [6] was “orally bioavailable”.
`CCCNCCCn1c2ccc3c(c2c2c4c(ccc21)C(=O)CC4)CCC3=O` [Compound 3]: the GI50 in data set [1] (setting [10]) came out at 2.2 ± 0.1 nM. For the same molecule, the GI50 in data set [1] (setting [8]) is < 10 nM. Besides, in data set [1], the “Selectivity Index HL GI50/Tbb GI50” value is recorded as 236. Also, the GI50 in data set [2] was determined as 3.6 ± 0.3 nM. The GI50 in data set [3] worked out at 520 ± 40 nM. In data set [4], the “survival of infected mice compared to control untreated animals” value is reported as “increased survival”, the reduction of parasitemia was determined as 100 fold, the “increase in average survival” value turned out to be 2 fold and the “cure of T. brucei infection in mice” value is “failed to cure”. The “weight loss of normal body weight (NBW)” value in data set [5] is “exceeding 10%”. In addition, the oral bioavailability result in data set [6] is listed as “orally bioavailable”.
For the molecule `CC[n+]1c(-c2ccccc2)c2cc(N)ccc2c2ccc(N)cc21` [ethidium bromide], the “formation of dyskinetoplastic trypanosomes (0K1N)” value in data set [7] (30 h time-course) is on record as “produced dyskinetoplastic trypanosomes”. Further, in data set [7] (30 h treatment, flow cytometry), the “effect on nuclear DNA content compared to vehicle” value is on record as “little or no effect”. In data set [7] (T. brucei seeded 1 × 10^5 cells/mL), the “increase in cell density during 30 h treatment” value was found to be 2.5 fold.
